According to publication PMC10337138 (Acta Neuropathologica Communications, 2023):

Assays:
Details in all cases: 1 mM ATP; inhibitor
[1] = biological target: AURKA/AURA (Homo sapiens, UniProt O14965)
Protocol: (§1) Kinase selectivity panel Kinome profiling was conducted by AssayQuant Technologies (Marlboro, MA) using Sox chromophore technology and Sox-based peptide substrates developed for human kinases in a 384-well format. Compounds were tested at 1 µM in the presence of 1 mM ATP.

[2] = biological target: CAMK2A (Homo sapiens, UniProt Q9UQM7)
Protocol: as §1

[3] = biological target: CAMK4 (Homo sapiens, UniProt Q16566)
Protocol: as §1

[4] = biological target: CDK1/B1 (Homo sapiens, UniProt P06493)
Protocol: as §1

[5] = biological target: CDK2/A2 (Homo sapiens, UniProt P24941)
Protocol: as §1

[6] = biological target: CSNK1G2/CK1G2 (Homo sapiens, UniProt P78368)
Protocol: as §1

[7] = biological target: DYRK1A (Homo sapiens, UniProt Q13627)
Protocol: as §1

[8] = biological target: EIF2AK2/PKR (Homo sapiens, UniProt P19525)
Protocol: as §1

[9] = biological target: EIF2AK3/PEK (Homo sapiens, UniProt Q9NZJ5)
Protocol: as §1

[10] = biological target: FRK (Homo sapiens, UniProt P42685)
Protocol: as §1

[11] = biological target: T1, FYNA (Homo sapiens, UniProt P06241)
T1 construct: gene FYN
Protocol: as §1

[12] = biological target: GAK (Homo sapiens, UniProt O14976)
Protocol: as §1

[13] = biological target: GRK3 (Homo sapiens, UniProt P35626)
Protocol: as §1

[14] = biological target: GRK7 (Homo sapiens, UniProt Q8WTQ7)
Protocol: as §1

[15] = biological target: INSR (Homo sapiens, UniProt P06213)
Protocol: as §1

[16] = biological target: IRAK4 (Homo sapiens, UniProt Q9NWZ3)
Protocol: as §1

[17] = biological target: JAK2(JH1) (Homo sapiens, UniProt O60674)
Protocol: as §1

[18] = biological target: KDR (Homo sapiens, UniProt P35968)
Protocol: as §1

[19] = biological target: KIT (Homo sapiens, UniProt P10721)
Protocol: as §1

[20] = biological target: LIMK2 (Homo sapiens, UniProt P53671)
Protocol: as §1

[21] = biological target: MAPK7/ERK5 (Homo sapiens, UniProt Q13164)
Protocol: as §1

[22] = biological target: T2, MLK4 (Homo sapiens, UniProt Q5TCX8)
T2 construct: gene MAP3K21
Protocol: as §1

[23] = biological target: MST1R/RON (Homo sapiens, UniProt Q04912)
Protocol: as §1

[24] = biological target: MUSK (Homo sapiens, UniProt O15146)
Protocol: as §1

[25] = biological target: T3, NDR1 (Homo sapiens, UniProt Q15208)
T3 construct: gene STK38
Protocol: as §1

[26] = biological target: PAK3 (Homo sapiens, UniProt O75914)
Protocol: as §1

[27] = biological target: PIM1 (Homo sapiens, UniProt P11309)
Protocol: as §1

[28] = biological target: PLK4 (Homo sapiens, UniProt O00444)
Protocol: as §1

[29] = biological target: PRKAA1/AMPK121 (Homo sapiens, UniProt Q13131)
Protocol: as §1

[30] = biological target: PRKCZ/PKCZ (Homo sapiens, UniProt Q05513)
Protocol: as §1

[31] = biological target: PRKDC/DNA-PK (Homo sapiens, UniProt P78527)
Protocol: as §1

[32] = biological target: ROCK2 (Homo sapiens, UniProt O75116)
Protocol: as §1

[33] = biological target: SGK1 (Homo sapiens, UniProt O00141)
Protocol: as §1

[34] = biological target: SRPK3/MSSK1 (Homo sapiens, UniProt Q9UPE1)
Protocol: as §1

[35] = biological target: STK3/MST2 (Homo sapiens, UniProt Q13188)
Protocol: as §1

[36] = biological target: SYK (Homo sapiens, UniProt P43405)
Protocol: as §1

[37] = biological target: TYRO3 (Homo sapiens, UniProt Q06418)
Protocol: as §1

[38] = biological target: T4, YSK4 (Homo sapiens, UniProt Q56UN5)
T4 construct: gene MAP3K19
Protocol: as §1

Sequence of IRAK4 (Q9NWZ3 whole entry): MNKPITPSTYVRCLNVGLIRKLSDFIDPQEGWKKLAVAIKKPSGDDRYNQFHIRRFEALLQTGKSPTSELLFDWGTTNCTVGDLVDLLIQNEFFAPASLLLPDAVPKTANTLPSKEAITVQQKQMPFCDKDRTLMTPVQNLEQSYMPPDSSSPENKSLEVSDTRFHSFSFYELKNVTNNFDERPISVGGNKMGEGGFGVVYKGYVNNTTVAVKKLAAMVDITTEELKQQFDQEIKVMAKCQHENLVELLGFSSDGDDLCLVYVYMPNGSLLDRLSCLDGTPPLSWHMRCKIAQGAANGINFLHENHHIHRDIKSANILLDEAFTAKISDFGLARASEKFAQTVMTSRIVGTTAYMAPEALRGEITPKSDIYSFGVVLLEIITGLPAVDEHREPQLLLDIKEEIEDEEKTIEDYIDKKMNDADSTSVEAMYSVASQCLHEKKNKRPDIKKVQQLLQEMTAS
Sequence of MAPK7/ERK5 (Q13164 whole entry): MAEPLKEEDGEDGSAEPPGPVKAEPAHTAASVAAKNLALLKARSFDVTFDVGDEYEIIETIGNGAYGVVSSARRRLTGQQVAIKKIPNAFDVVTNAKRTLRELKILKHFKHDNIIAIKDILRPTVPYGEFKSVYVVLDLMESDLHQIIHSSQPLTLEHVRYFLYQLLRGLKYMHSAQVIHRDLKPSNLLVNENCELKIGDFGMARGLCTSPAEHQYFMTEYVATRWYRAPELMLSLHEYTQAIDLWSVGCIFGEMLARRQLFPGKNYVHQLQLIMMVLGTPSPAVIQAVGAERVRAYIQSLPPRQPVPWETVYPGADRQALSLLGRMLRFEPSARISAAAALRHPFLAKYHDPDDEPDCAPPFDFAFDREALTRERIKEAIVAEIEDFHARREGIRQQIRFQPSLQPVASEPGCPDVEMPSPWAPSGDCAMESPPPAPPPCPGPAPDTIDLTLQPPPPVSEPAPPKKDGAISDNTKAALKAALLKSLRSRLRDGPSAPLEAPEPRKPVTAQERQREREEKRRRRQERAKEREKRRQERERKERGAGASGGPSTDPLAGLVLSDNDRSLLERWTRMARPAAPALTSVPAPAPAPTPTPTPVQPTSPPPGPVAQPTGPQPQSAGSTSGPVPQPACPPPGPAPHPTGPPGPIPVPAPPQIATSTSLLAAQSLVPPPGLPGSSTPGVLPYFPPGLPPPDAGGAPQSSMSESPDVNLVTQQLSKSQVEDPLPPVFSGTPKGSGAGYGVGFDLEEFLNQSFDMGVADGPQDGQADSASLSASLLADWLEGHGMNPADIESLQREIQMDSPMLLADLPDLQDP
Sequence of CAMK4 (Q16566 whole entry): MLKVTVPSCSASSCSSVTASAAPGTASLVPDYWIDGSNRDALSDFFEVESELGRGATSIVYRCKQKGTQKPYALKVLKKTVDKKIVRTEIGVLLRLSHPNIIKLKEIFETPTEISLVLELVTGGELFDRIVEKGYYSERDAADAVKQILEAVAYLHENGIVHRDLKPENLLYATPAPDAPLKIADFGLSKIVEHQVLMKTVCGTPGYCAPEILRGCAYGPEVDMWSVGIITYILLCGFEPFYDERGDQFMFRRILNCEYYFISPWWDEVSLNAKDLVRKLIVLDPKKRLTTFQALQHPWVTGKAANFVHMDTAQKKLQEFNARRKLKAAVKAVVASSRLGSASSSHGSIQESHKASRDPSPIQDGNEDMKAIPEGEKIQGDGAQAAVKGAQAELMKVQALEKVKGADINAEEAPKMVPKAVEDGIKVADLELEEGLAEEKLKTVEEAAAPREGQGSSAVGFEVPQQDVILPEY
Sequence of ROCK2 (O75116 whole entry): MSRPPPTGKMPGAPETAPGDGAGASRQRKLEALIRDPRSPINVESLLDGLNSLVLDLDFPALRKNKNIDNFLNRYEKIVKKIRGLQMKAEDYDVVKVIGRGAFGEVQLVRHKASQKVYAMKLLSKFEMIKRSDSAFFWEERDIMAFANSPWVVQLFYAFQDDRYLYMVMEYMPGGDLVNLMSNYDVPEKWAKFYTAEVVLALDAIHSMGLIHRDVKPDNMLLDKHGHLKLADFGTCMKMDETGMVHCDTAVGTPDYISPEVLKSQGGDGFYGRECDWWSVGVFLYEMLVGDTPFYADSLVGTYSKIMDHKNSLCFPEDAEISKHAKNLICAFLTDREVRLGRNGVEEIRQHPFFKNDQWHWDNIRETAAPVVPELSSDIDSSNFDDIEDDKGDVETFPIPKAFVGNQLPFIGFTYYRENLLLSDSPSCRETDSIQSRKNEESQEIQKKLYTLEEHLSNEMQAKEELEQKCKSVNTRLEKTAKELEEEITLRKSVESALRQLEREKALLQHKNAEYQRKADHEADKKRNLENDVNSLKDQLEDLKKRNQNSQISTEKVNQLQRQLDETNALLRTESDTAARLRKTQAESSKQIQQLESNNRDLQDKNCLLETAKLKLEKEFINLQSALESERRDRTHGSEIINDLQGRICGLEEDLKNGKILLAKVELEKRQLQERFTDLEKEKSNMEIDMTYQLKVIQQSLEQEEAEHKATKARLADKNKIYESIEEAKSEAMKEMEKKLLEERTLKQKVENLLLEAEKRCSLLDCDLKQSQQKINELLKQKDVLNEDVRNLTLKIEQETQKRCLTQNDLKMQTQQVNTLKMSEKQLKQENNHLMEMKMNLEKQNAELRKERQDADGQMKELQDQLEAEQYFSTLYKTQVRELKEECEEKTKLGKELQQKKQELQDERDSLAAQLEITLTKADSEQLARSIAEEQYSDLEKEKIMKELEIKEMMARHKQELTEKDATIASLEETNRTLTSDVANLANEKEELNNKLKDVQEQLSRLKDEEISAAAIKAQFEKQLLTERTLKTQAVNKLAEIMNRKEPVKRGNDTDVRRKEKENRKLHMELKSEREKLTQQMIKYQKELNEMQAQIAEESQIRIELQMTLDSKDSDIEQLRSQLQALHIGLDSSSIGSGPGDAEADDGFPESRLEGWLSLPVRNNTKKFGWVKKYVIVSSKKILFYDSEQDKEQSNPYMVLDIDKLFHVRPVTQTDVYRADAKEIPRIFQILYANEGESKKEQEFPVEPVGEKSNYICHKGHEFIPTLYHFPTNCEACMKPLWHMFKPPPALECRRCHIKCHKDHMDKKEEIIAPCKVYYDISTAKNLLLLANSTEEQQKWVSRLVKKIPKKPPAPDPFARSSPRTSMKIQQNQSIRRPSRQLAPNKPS
Sequence of AURKA/AURA (O14965 whole entry): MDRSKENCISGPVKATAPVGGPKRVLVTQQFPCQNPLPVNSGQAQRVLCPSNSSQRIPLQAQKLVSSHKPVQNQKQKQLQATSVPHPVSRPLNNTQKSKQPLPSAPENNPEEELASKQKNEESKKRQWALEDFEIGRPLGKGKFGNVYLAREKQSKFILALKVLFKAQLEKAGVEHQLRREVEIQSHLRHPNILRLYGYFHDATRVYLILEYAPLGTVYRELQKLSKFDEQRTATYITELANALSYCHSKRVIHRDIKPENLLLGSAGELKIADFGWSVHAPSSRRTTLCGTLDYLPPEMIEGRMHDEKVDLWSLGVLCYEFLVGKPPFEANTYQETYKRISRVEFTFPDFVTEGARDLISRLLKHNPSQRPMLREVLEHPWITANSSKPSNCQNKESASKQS
Sequence of PRKAA1/AMPK121 (Q13131 whole entry): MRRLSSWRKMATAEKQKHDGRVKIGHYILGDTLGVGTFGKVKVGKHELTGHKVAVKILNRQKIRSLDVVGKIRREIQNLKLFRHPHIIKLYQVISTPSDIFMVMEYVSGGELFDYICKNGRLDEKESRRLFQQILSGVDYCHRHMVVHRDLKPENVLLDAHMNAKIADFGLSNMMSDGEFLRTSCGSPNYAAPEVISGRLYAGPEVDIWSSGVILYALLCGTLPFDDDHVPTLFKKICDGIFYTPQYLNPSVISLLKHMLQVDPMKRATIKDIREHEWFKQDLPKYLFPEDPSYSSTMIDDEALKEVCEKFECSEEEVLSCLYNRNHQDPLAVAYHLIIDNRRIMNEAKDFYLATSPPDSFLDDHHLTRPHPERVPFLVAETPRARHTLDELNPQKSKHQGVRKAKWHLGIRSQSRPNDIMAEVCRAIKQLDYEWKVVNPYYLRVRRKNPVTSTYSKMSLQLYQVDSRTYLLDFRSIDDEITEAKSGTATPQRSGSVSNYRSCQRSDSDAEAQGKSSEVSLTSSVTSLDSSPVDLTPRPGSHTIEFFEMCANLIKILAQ
Sequence of PRKAA1/AMPK121 (O43741 whole entry partner): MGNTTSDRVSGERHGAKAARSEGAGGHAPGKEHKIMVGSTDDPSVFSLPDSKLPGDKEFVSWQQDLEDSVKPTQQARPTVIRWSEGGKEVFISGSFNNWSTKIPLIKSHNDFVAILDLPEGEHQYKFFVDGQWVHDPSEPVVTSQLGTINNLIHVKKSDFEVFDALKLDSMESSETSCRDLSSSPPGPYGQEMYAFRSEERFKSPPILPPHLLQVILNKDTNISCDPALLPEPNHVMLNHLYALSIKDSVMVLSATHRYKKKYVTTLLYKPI
Sequence of PRKAA1/AMPK121 (P54619 whole entry partner): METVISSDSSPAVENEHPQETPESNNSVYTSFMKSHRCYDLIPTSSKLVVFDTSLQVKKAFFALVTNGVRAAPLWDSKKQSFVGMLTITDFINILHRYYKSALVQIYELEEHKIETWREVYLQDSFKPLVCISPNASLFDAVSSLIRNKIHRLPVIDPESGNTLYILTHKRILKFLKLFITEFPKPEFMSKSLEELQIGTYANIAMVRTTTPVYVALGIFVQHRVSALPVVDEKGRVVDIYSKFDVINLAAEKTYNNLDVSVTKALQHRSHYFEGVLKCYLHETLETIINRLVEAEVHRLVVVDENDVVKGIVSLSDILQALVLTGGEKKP
Sequence of PIM1 (P11309 whole entry): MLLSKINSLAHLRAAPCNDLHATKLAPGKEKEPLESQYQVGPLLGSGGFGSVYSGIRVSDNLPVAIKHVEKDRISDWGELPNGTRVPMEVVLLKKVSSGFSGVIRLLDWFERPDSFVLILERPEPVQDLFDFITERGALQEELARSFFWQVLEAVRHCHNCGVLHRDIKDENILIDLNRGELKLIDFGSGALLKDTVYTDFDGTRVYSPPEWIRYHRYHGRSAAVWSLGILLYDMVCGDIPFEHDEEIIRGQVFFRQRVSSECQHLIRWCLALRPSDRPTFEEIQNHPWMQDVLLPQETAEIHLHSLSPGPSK

SMILES: C=CC(=O)N1CCC[C@@H](n2nc(-c3ccc(Oc4ccccc4)cc3)c3c(N)ncnc32)C1 [Ibrutinib]
- 1 µM GBD00276 (ibrutinib), % inhibition [1]: 11.52%
- 1 µM GBD00276 (ibrutinib), % inhibition [2]: 2.188%
- 1 µM GBD00276 (ibrutinib), % inhibition [3]: 3.011%
- 1 µM GBD00276 (ibrutinib), % inhibition [4]: -7.635%
- 1 µM GBD00276 (ibrutinib), % inhibition [5]: -9.861%
- 1 µM GBD00276 (ibrutinib), % inhibition [6]: 17.59%
- 1 µM GBD00276 (ibrutinib), % inhibition [7]: 15.66%
- 1 µM GBD00276 (ibrutinib), % inhibition [8]: 0.3752%
- 1 µM GBD00276 (ibrutinib), % inhibition [9]: -3.047%
- 1 µM GBD00276 (ibrutinib), % inhibition [10]: 45.62%
- 1 µM GBD00276 (ibrutinib), % inhibition [11]: 15.99%
- 1 µM GBD00276 (ibrutinib), % inhibition [12]: -7.706%
- 1 µM GBD00276 (ibrutinib), % inhibition [13]: -19.22%
- 1 µM GBD00276 (ibrutinib), % inhibition [14]: 3.056%
- 1 µM GBD00276 (ibrutinib), % inhibition [15]: -2.978%
- 1 µM GBD00276 (ibrutinib), % inhibition [16]: 1.168%
- 1 µM GBD00276 (ibrutinib), % inhibition [17]: 4.378%
- 1 µM GBD00276 (ibrutinib), % inhibition [18]: 29.01%
- 1 µM GBD00276 (ibrutinib), % inhibition [19]: 2.778%
- 1 µM GBD00276 (ibrutinib), % inhibition [20]: 11.59%
- 1 µM GBD00276 (ibrutinib), % inhibition [21]: -0.1217%
- 1 µM GBD00276 (ibrutinib), % inhibition [22]: 4.614%
- 1 µM GBD00276 (ibrutinib), % inhibition [23]: 1.112%
- 1 µM GBD00276 (ibrutinib), % inhibition [24]: 8.501%
- 1 µM GBD00276 (ibrutinib), % inhibition [25]: 6.051%
- 1 µM GBD00276 (ibrutinib), % inhibition [26]: 14.04%
- 1 µM GBD00276 (ibrutinib), % inhibition [27]: 0.08032%
- 1 µM GBD00276 (ibrutinib), % inhibition [28]: 7.389%
- 1 µM GBD00276 (ibrutinib), % inhibition [29]: 2.34%
- 1 µM GBD00276 (ibrutinib), % inhibition [30]: 7.244%
- 1 µM GBD00276 (ibrutinib), % inhibition [31]: 1.018%
- 1 µM GBD00276 (ibrutinib), % inhibition [32]: 8.461%
- 1 µM GBD00276 (ibrutinib), % inhibition [33]: -3.083%
- 1 µM GBD00276 (ibrutinib), % inhibition [34]: 1.885%
- 1 µM GBD00276 (ibrutinib), % inhibition [35]: -10.97%
- 1 µM GBD00276 (ibrutinib), % inhibition [36]: 6.138%
- 1 µM GBD00276 (ibrutinib), % inhibition [37]: 3.401%
- 1 µM GBD00276 (ibrutinib), % inhibition [38]: 25.63%
